Laboratory results: US7335723B2, “Melanin-concentrating hormone antagonists” (priority 2001, dated 2008)
Where a SMILES comes first, the peptide text is derived from it. Bridges are numbered along the chain shown (N, C = ends). [ ]: non-standard residue; d: D form. The star is where a group is joined. Pentanoyl(5-guanidino) = NC(N)=NCCCCC(=O)*; dNle = CCCC[C@@H](N)C(=O)O; Nle = CCCC[C@H](N)C(=O)O; Ava = NCCCCC(=O)O; βAla = NCCC(=O)O

Legend:
[1] = molecular target: human MCH-2R (Homo sapiens, UniProt Q969V1); assay: Aequorin bioluminescence functional assay, MCH-2R agonist activity; settings: for MCH-2R Agonist Activation %: 293-AEQ17 cells expressing human MCH-2R
[2] = molecular target: rat MCH-1R (Rattus norvegicus, UniProt P97639); assay: Aequorin bioluminescence functional assay, MCH-1R agonist activity; settings: for MCH-1R Agonist Activation %: 293-AEQ17 cells expressing rat MCH-1R
[3] = molecular target: human MCH-1R (Homo sapiens, UniProt Q99705); assay: MCH-1R binding assay, inhibition of [125I]-human MCH binding to membranes
Chain of human MCH-1R (Q99705 whole entry): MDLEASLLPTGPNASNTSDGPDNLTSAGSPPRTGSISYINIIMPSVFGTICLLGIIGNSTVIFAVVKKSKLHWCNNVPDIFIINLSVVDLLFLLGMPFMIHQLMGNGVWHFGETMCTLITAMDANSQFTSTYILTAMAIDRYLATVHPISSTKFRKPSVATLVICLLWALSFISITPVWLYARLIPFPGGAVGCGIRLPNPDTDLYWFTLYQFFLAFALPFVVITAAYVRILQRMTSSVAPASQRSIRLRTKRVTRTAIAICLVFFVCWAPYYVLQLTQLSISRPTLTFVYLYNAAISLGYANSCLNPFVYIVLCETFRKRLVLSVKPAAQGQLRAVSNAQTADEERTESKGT
Method: Cell membranes were prepared on ice. Each T-75 flask was rinsed twice with 10 ml of Enzyme-free Cell Dissociation Buffer (Specialty Media, Lavallette, N.J.), and the cell monolayer was detached in an additional 10 ml of Enzyme-free Cell Dissociation Buffer by incubation at room temperature for 10 minutes. Dissociated cells were centrifuged (500×g for 10 minutes at 4° C.), resuspended in 5 ml homogenization buffer (10 mM Tris-HCl, pH 7.4, 0.01 mM Pefabloc, 10 μM phosphoramidon, 40 μg/ml bacitracin) and then homogenized using a glass homogenizer (10-15 strokes). The homogenate was centrifuged for 10 minutes (1,000×g at 4° C.). The resulting supernatant was then centrifuged at 38,700×g for 15 minutes at 4° C. Pelleted membranes were resuspended (passed through 25 gauge needle 5 times), snap-frozen on liquid nitrogen, and stored at −80° C. until use.
Bound radioligand was separated by rapid vacuum filtration (Packard Filtermate 96-well cell harvester) through GF/C filters pretreated for 1 hour with 1% polyethylenimine. After application of the membrane suspension to the filter, the filters were washed 3 times with 3 ml each of ice-cold 50 mM Tris-HCl, pH 7.4, 10 mM MgCl2, 2 mM EDTA, 0.04% Tween 20 and the bound radioactivity on the filters was quantitated by scintillation counting (TopCount device).
For the SPA-based assay, WGA-PVT beads (NEN Life Sciences Products) were resuspended in Dulbecco's PBS with calcium and magnesium (500 mg beads in 4 ml PBS). […] The suspension was mixed gently for 20 minutes, 12.3 ml of assay buffer and protease inhibitors were added (final concentration given): 2 μg/ml leupeptin, 10 μM phosphoramidon, 40 μg/ml bacitracin, 5 μg/ml aprotinin, 0.1 mM Pefabloc.
Coated beads were kept on ice until use.

Chain of human MCH-2R (Q969V1 whole entry): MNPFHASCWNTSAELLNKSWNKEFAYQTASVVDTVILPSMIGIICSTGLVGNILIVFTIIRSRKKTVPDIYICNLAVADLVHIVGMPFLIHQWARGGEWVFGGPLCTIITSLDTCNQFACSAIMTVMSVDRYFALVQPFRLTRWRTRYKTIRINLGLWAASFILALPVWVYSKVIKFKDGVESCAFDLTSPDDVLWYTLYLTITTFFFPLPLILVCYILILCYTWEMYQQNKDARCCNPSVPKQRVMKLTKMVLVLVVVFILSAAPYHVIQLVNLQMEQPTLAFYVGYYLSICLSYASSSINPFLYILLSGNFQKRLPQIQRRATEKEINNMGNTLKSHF
Chain of rat MCH-1R (P97639 whole entry): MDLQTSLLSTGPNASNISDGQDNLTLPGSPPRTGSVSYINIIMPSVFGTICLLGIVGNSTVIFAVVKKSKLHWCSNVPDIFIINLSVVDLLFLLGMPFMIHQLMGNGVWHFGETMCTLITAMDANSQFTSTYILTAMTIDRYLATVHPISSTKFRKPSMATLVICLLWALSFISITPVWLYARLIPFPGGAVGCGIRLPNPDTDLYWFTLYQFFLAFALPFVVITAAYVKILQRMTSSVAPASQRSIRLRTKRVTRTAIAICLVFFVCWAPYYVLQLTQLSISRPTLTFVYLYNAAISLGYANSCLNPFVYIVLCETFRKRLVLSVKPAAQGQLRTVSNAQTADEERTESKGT

CC(=O)N[C@@H](CCCNC(=N)N)C(=O)N[C@H]1CSSC[C@@H](C(N)=O)NC(=O)CCCCNC(=O)CCCCNC(=O)[C@H](Cc2ccc(O)cc2)NC(=O)[C@H](C(C)C)NC(=O)[C@H](CCCNC(=N)N)NC(=O)CNC(=O)[C@H](CC(C)C)NC(=O)[C@H](C)NC1=O [SEQ. ID. NO. 22] (Ac-RCALGRVY[Ava][Ava]C-NH2; disulfide 2-11; C-terminus assumed)
EC50 [1]: 1.83 µM
MCH-2R Agonist Activation % [1]: 25%
EC50 [2]: > 10000 nM
MCH-1R Agonist Activation % [2]: 0.1%
IC50 [3]: > 1000 nM

CSCC[C@@H]1NC(=O)[C@H](NC(=O)CCCCNC(=N)N)CSSC[C@@H](C(N)=O)NC(=O)CCCCNC(=O)CCCCNC(=O)[C@H](Cc2ccc(O)cc2)NC(=O)[C@H](C(C)C)NC(=O)[C@H](CCCNC(=N)N)NC(=O)CNC(=O)[C@H](CC(C)C)NC1=O [SEQ. ID. NO. 25]
EC50 [1]: > 10 µM
MCH-2R Agonist Activation % [1]: 25%
EC50 [2]: > 10000 nM
MCH-1R Agonist Activation % [2]: 0.1%
IC50 [3]: 66 nM

CC(C)[C@@H]1NC(=O)[C@H](CCCNC(=N)N)NC(=O)CCCCNC(=O)CCCCNC(=O)CCCCNC(=O)[C@@H](NC(=O)CCCCNC(=N)N)CSSC[C@@H](C(N)=O)NC(=O)CCCCNC(=O)CCCCNC(=O)[C@H](Cc2ccc(O)cc2)NC1=O [SEQ. ID. NO. 36]
EC50 [1]: > 10 µM
MCH-2R Agonist Activation % [1]: 24%
EC50 [2]: > 10000 nM
MCH-1R Agonist Activation % [2]: 0.1%
IC50 [3]: > 1000 nM

CSCC[C@@H]1NC(=O)[C@@H](NC(=O)[C@@H](CCCNC(=N)N)NC(C)=O)CSSC[C@@H](C(N)=O)NC(=O)[C@@H]2CCCN2C(=O)[C@H](CCCNC(=N)N)NC(=O)[C@H](Cc2ccc(O)cc2)NC(=O)[C@H](C(C)C)NC(=O)[C@H](CCCNC(=N)N)NC(=O)CCCCNC(=O)CCCCNC1=O [SEQ. ID. NO. 4] (Ac-[dR]CM[Ava][Ava]RVYRPC-NH2; disulfide 2-11 (inferred); C-terminus assumed)
EC50 [1]: > 10 µM
MCH-2R Agonist Activation % [1]: 7%
EC50 [2]: 1080 nM
MCH-1R Agonist Activation % [2]: 72%
IC50 [3]: 3.7 nM

C[C@@H]1NC(=O)[C@@H](NC(=O)CCCCNC(=N)N)CSSC[C@@H](C(=O)O)NC(=O)CCCCNC(=O)CCCCNC(=O)[C@H](Cc2ccc(O)cc2)NC(=O)[C@H](C)NC(=O)[C@H](CCCNC(=N)N)NC(=O)CCCCNC(=O)CCCCNC1=O [SEQ. ID. NO. 34] ({Pentanoyl(5-guanidino)}-CA[Ava][Ava]RAY[Ava][Ava]C-OH; disulfide 1-10)
EC50 [1]: > 10 µM
MCH-2R Agonist Activation % [1]: 28%
EC50 [2]: > 10000 nM
MCH-1R Agonist Activation % [2]: 0.1%
IC50 [3]: > 1000 nM

CSCC[C@@H]1NC(=O)[C@@H](NC(=O)[C@H](CCCNC(=N)N)NC(C)=O)CSSC[C@@H](C(N)=O)NC(=O)CCNC(=O)CCNC(=O)[C@H](Cc2ccc(O)cc2)NC(=O)[C@H](C(C)C)NC(=O)[C@H](CCCNC(=N)N)NC(=O)CCNC(=O)CCNC1=O [SEQ. ID. NO. 31] (Ac-RCM[βAla][βAla]RVY[βAla][βAla]C-NH2; disulfide 2-11)
EC50 [1]: > 10 µM
MCH-2R Agonist Activation % [1]: 6%
EC50 [2]: > 10000 nM
MCH-1R Agonist Activation % [2]: 3%
MCH-1R Binding, % @ concentration ([3]; @ 10 (concentration unit not given), in the IC50 (nM) column): 76% @ 10

CSCC[C@@H]1NC(=O)[C@@H](NC(=O)[C@H](CCCNC(=N)N)NC(C)=O)CSSC[C@@H](C(N)=O)NC(=O)[C@@H]2CCCN2C(=O)[C@H](CCCNC(=N)N)NC(=O)[C@H](Cc2ccc(O)cc2)NC(=O)[C@H](C(C)C)NC(=O)[C@H](CCCNC(=N)N)NC(=O)CNC(=O)[C@H](CC(C)C)NC1=O [SEQ. ID. NO. 2]
EC50 [2]: 20 nM
MCH-1R Agonist Activation % [2]: 99%

CSCC[C@@H]1NC(=O)[C@@H](NC(=O)[C@H](CCCNC(=N)N)NC(C)=O)CSSC[C@@H](C(N)=O)NC(=O)CCCCNC(=O)CCCCNC(=O)[C@H](Cc2ccc(O)cc2)NC(=O)[C@H](C(C)C)NC(=O)[C@H](CCCNC(=N)N)NC(=O)[C@H]2CCCN2C(=O)[C@H](CC(C)C)NC1=O [SEQ. ID. NO. 28] (Ac-RCML[dP]RVY[Ava][Ava]C-NH2; disulfide 2-11 (inferred); C-terminus assumed)
EC50 [1]: > 10 µM
MCH-2R Agonist Activation % [1]: 7%
IC50 [3]: 700 nM

CCCC[C@@H]1NC(=O)[C@@H](NC(=O)CCCCNC(=N)N)CSSC[C@@H](C(=O)O)NC(=O)CCCCNC(=O)CCCCNC(=O)[C@H](Cc2ccc(O)cc2)NC(=O)[C@H](C)NC(=O)[C@H](CCCNC(=N)N)NC(=O)CCCCNC(=O)CCCCNC1=O [SEQ. ID. NO. 35] ({Pentanoyl(5-guanidino)}-C[Nle][Ava][Ava]RAY[Ava][Ava]C-OH; disulfide 1-10)
EC50 [1]: > 10 µM
MCH-2R Agonist Activation % [1]: 25%
EC50 [2]: > 10000 nM
MCH-1R Agonist Activation % [2]: 0.1%
IC50 [3]: > 1000 nM

CSCC[C@@H]1NC(=O)[C@@H](NC(=O)[C@H](CCCNC(=N)N)NC(=O)[C@H](CC(C)C)NC(=O)[C@H](CCSC)NC(=O)[C@H](CC(=O)O)NC(=O)[C@H](Cc2ccccc2)NC(=O)[C@@H](N)CC(=O)O)CSSC[C@@H](C(=O)N[C@@H](Cc2c[nH]c3ccccc23)C(=O)N[C@@H](CCC(N)=O)C(=O)N[C@H](C(=O)O)C(C)C)NC(=O)[C@@H]2CCCN2C(=O)[C@H](CCCNC(=N)N)NC(=O)[C@H](Cc2ccc(O)cc2)NC(=O)[C@H](C(C)C)NC(=O)[C@H](CCCNC(=N)N)NC(=O)CNC(=O)[C@H](CC(C)C)NC1=O [hMCH, reference compound]
MCH-2R Agonist Activation % [1]: 100%
EC50 [2]: 30.9 nM
MCH-1R Agonist Activation % [2]: 100%

CCCC[C@H]1NC(=O)[C@H](CC(C)C)NC(=O)[C@H](CCSC)NC(=O)[C@@H](NC(=O)[C@H](CCCNC(=N)N)NC(C)=O)CSSC[C@@H](C(N)=O)NC(=O)CCCCNC(=O)CCCCNC(=O)[C@H](Cc2ccc(O)cc2)NC(=O)[C@H](C(C)C)NC(=O)[C@H](CCCNC(=N)N)NC1=O [SEQ. ID. NO. 26] (Ac-RCML[dNle]RVY[Ava][Ava]C-NH2; disulfide 2-11; C-terminus assumed)
EC50 [1]: > 10 µM
MCH-2R Agonist Activation % [1]: 91%
EC50 [2]: 544 nM
MCH-1R Agonist Activation % [2]: 43%
IC50 [3]: 223 nM

CSCC[C@@H]1NC(=O)[C@@H](NC(=O)CCCCNC(=N)N)CSSC[C@@H](C(N)=O)NC(=O)[C@@H]2CCCN2C(=O)[C@H](CCCNC(=N)N)NC(=O)[C@H](Cc2ccc(O)cc2)NC(=O)[C@H](C(C)C)NC(=O)[C@H](CCCNC(=N)N)NC(=O)CCCCNC(=O)CCCCNC1=O [SEQ. ID. NO. 5] ({Pentanoyl(5-guanidino)}-CM[Ava][Ava]RVYRPC-NH2; disulfide 1-10 (inferred); C-terminus assumed)
EC50 [1]: > 10 µM
MCH-2R Agonist Activation % [1]: 31%
EC50 [2]: 380 nM
MCH-1R Agonist Activation % [2]: 10%
IC50 [3]: 6.3 nM

CSCC[C@@H]1NC(=O)[C@@H](NC(=O)CCCCNC(=N)N)CSSC[C@@H](C(N)=O)NC(=O)CNC(=O)[C@H](Cc2ccc(O)cc2)NC(=O)[C@H](C(C)C)NC(=O)[C@H](CCCNC(=N)N)NC(=O)CCCCNC(=O)CCCCNC1=O [SEQ. ID. NO. 6] ({Pentanoyl(5-guanidino)}-CM[Ava][Ava]RVYGC-NH2; disulfide 1-9)
EC50 [1]: > 10 µM
MCH-2R Agonist Activation % [1]: 25%
EC50 [2]: > 10000 nM
MCH-1R Agonist Activation % [2]: 0.1%
IC50 [3]: > 1000 nM

CSCC[C@@H]1NC(=O)[C@@H](NC(=O)CCCCNC(=N)N)CSSC[C@@H](C(N)=O)NC(=O)CCCCNC(=O)CCCCNC(=O)[C@H](Cc2ccc(O)cc2)NC(=O)[C@H](C(C)C)NC(=O)[C@H](CCCNC(=N)N)NC(=O)CNC1=O [SEQ. ID. NO. 23] ({Pentanoyl(5-guanidino)}-CMGRVY[Ava][Ava]C-NH2; disulfide 1-9)
EC50 [1]: > 10 µM
MCH-2R Agonist Activation % [1]: 26%
EC50 [2]: > 10000 nM
MCH-1R Agonist Activation % [2]: 0.1%
IC50 [3]: > 1000 nM

CSCC[C@@H]1NC(=O)[C@@H](NC(=O)[C@H](CCCNC(=N)N)NC(C)=O)CSSC[C@@H](C(N)=O)NC(=O)CCCCNC(=O)CCCCNC(=O)[C@H](Cc2ccc(O)cc2)NC(=O)[C@H](C(C)C)NC(=O)[C@H](CCCNC(=N)N)NC(=O)CNC(=O)[C@H](CC(C)C)NC1=O [SEQ. ID. NO. 8] (Ac-RCMLGRVY[Ava][Ava]C-NH2; disulfide 2-11; C-terminus assumed)
EC50 [1]: > 10 µM
EC50 [2]: 406 nM
MCH-1R Agonist Activation % [2]: 75%
IC50 [3]: 6.6 nM

CSCC[C@@H]1NC(=O)[C@H](NC(=O)[C@H](CCCNC(=N)N)NC(C)=O)CSSC[C@@H](C(N)=O)NC(=O)CCCCNC(=O)CCCCNC(=O)[C@H](Cc2ccc(O)cc2)NC(=O)[C@H](C(C)C)NC(=O)[C@H](CCCNC(=N)N)NC(=O)CNC(=O)[C@H](CC(C)C)NC1=O [SEQ. ID. NO. 24] (Ac-R[dC]MLGRVY[Ava][Ava]C-NH2; disulfide 2-11; C-terminus assumed)
EC50 [1]: > 10 µM
MCH-2R Agonist Activation % [1]: 17%
EC50 [2]: > 10000 nM
MCH-1R Agonist Activation % [2]: 3%
IC50 [3]: 350 nM
